Calls of active or inactive are those of the source. No rule for the calls is given here.
System: CCRIS mutagenicity, Ames/micronucleus/aberration tests
Assay: CCRIS mutagenicity studies

Measured: mutagenic call

Nc1cccc(N)c1
inactive: Test System: AMES SALMONELLA TYPHIMURIUM, Strain/Indicator: TA1535, Metabolic Activation: HAMSTER, LIVER, S-9, AROCLOR 1254 (10%), Method: PREINCUBATION inactive; negative | Test System: AMES SALMONELLA TYPHIMURIUM, Strain/Indicator: TA1535, Metabolic Activation: NONE, Method: PREINCUBATION inactive; negative | Test System: AMES SALMONELLA TYPHIMURIUM, Strain/Indicator: TA1535, Metabolic Activation: RAT, LIVER, S-9, AROCLOR 1254 (30%), Method: PREINCUBATION inactive; negative | Test System: AMES SALMONELLA TYPHIMURIUM, Strain/Indicator: YG1024, Metabolic Activation: NONE, Method: PREINCUBATION inactive; negative | Test System: AMES SALMONELLA TYPHIMURIUM, Strain/Indicator: YG1024, Metabolic Activation: NONE, Method: STANDARD PLATE inactive; negative | Test System: AMES SALMONELLA TYPHIMURIUM, Strain/Indicator: YG1029, Metabolic Activation: NONE, Method: STANDARD PLATE inactive; negative | Test System: AMES SALMONELLA TYPHIMURIUM, Strain/Indicator: YG1029, Metabolic Activation: PLANT (PERSEA AMERICANA) S-117, Method: STANDARD PLATE inactive; negative | Test System: Ames Salmonella typhimurium, Strain/Indicator: TA98, Metabolic Activation: None, Method: Preincubation inactive; negative | Test System: Ames Salmonella typhimurium, Strain/Indicator: TA100, Metabolic Activation: None, Method: Preincubation inactive; negative | Test System: Ames Salmonella typhimurium, Strain/Indicator: TA100, Metabolic Activation: Rat, Liver, S9, Sodium phenobarbital and 5,6-benzoflavone (10%), Method: Preincubation inactive; negative | Test System: Ames Salmonella typhimurium, Strain/Indicator: TA100, Metabolic Activation: Rat, Liver, S9, Sodium phenobarbital and 5,6-benzoflavone, Method: Preincubation inactive; positive (repeat assay negative) | Test System: Ames Salmonella typhimurium, Strain/Indicator: TA1535, Metabolic Activation: None, Method: Preincubation inactive; negative | Test System: Ames Salmonella typhimurium, Strain/Indicator: TA1535, Metabolic Activation: Rat, Liver, S9, Sodium phenobarbital and 5,6-benzoflavone (10%), Method: Preincubation inactive; negative | Test System: Ames Salmonella typhimurium, Strain/Indicator: TA1537, Metabolic Activation: None, Method: Preincubation inactive; negative | Test System: E. coli, Strain/Indicator: WP2uvrA/pKM101, Metabolic Activation: None, Method: Preincubation inactive; negative | Test System: E. coli, Strain/Indicator: WP2uvrA/pKM101, Metabolic Activation: Rat, Liver, S9, Sodium phenobarbital and 5,6-benzoflavone (10%), Method: Preincubation inactive; negative | Test System: UDS RODENT HEPATOCYTES, Strain/Indicator: THY INCORP (NON-S-PHASE), Metabolic Activation: NONE, Method: AUTORADIOGRAPHY inactive; negative
active: Test System: AMES SALMONELLA TYPHIMURIUM, Strain/Indicator: TA100, Metabolic Activation: S-9, Method: PREINCUBATION active; positive | Test System: AMES SALMONELLA TYPHIMURIUM, Strain/Indicator: TA1535, Metabolic Activation: HAMSTER, LIVER, S-9, AROCLOR 1254 (30%), Method: PREINCUBATION active; positive | Test System: AMES SALMONELLA TYPHIMURIUM, Strain/Indicator: TA1535, Metabolic Activation: RAT, LIVER, S-9, AROCLOR 1254 (5%), Method: PREINCUBATION active; positive | Test System: AMES SALMONELLA TYPHIMURIUM, Strain/Indicator: TA1537, Metabolic Activation: RAT, LIVER, S-9, AROCLOR 1254 (4 OR 10%), Method: STANDARD PLATE active; positive | Test System: AMES SALMONELLA TYPHIMURIUM, Strain/Indicator: TA1538, Metabolic Activation: RAT, LIVER, S-9, AROCLOR 1254 (4 OR 10%), Method: STANDARD PLATE active; positive | Test System: AMES SALMONELLA TYPHIMURIUM, Strain/Indicator: TA1538, Metabolic Activation: RAT, LIVER, S-9, PHENOBARBITAL, Method: STANDARD PLATE active; positive | Test System: AMES SALMONELLA TYPHIMURIUM, Strain/Indicator: YG1021, Metabolic Activation: RAT, LIVER, S-9, PHENOBARBITAL AND 5,6-BENZOFLAVONE, Method: PREINCUBATION active; positive | Test System: AMES SALMONELLA TYPHIMURIUM, Strain/Indicator: YG1024, Metabolic Activation: CELL-FREE PLANT MIXTURE TX1MX, Method: PREINCUBATION active; positive | Test System: AMES SALMONELLA TYPHIMURIUM, Strain/Indicator: YG1024, Metabolic Activation: PLANT (PERSEA AMERICANA) S-117, Method: STANDARD PLATE active; positive | Test System: AMES SALMONELLA TYPHIMURIUM, Strain/Indicator: YG1024, Metabolic Activation: PLANT (ZEA MAYS) S-9, Method: STANDARD PLATE active; positive | Test System: AMES SALMONELLA TYPHIMURIUM, Strain/Indicator: YG1024, Metabolic Activation: RAT LIVER S-9, AROCLOR 1254, Method: STANDARD PLATE active; positive | Test System: AMES SALMONELLA TYPHIMURIUM, Strain/Indicator: YG1024, Metabolic Activation: RAT LIVER S-9, Method: STANDARD PLATE active; positive | Test System: AMES SALMONELLA TYPHIMURIUM, Strain/Indicator: YG1024, Metabolic Activation: RAT, LIVER, S-9, PHENOBARBITAL AND 5,6-BENZOFLAVONE, Method: PREINCUBATION active; positive | Test System: AMES SALMONELLA TYPHIMURIUM, Strain/Indicator: YG1024, Metabolic Activation: TOBACCO, TX1 CELLS, Method: PREINCUBATION active; positive | Test System: AMES SALMONELLA TYPHIMURIUM, Strain/Indicator: YG1041, Metabolic Activation: RAT, LIVER, S-9, PHENOBARBITAL AND 5,6-BENZOFLAVONE, Method: PREINCUBATION active; positive | Test System: Ames Salmonella typhimurium, Strain/Indicator: TA98, Metabolic Activation: Rat, Liver, S9, Sodium phenobarbital and 5,6-benzoflavone (10%), Method: Preincubation active; positive | Test System: Ames Salmonella typhimurium, Strain/Indicator: TA1537, Metabolic Activation: Rat, Liver, S9, Sodium phenobarbital and 5,6-benzoflavone (10%), Method: Preincubation active; positive
